pIC50: −log10 of the molar value.
Key:
[1] = system: pAKT (T308) in MCF-7 cells (PI3Kα E545K); assay: pAKT (T308) ELISA Assay; assay type: cell-based; settings: Homo sapiens, MCF7; IGF1 stimulation; read-out: pAKT (T308) IC50 MCF-7 PI3Kα E545K IGF1
Experimental: MCF-7 cells (ATCC) cells were seeded at 24000 cells per well in 96-well plates (Corning, 3904) in DMEM (Cellgro) containing 10% FBS (Cellgro), 1% NEAA (Cellgro) and 1% penicillin-streptomycin (Cellgro). Cells were incubated at 37° C., 5% CO2 for 48 h, and the growth medium was replaced with serum-free DMEM or in medium containing 0.4% BSA. Serial dilutions of the test Compound in 0.3% DMSO (vehicle) were added to the cells and incubated for 3 h. At the end of the incubation period, cells were stimulated for 10 minutes by the addition of L-IGF (Sigma, I-1271) at a final concentration of 100 ng/ml. Afterwards, media was discarded from cell plates and 110 μl/well of cold lysis buffer (see table below) were added. Cell plates were incubated on ice and then put on shaker in 4° C. cold room for 1 h. Two capture plates (Thermo Scientific, Reacti-bind plate, 15042) were prepared for each cell plate by pre-coating with capture Akt antibody from the two sandwich ELISA antibody pairs used (Cell Signaling Technology 7142 and 7144). The Akt capture antibodies were diluted 1:100 in PBS and 100 μl of diluted capture antibody was added per well. Capture plates were incubated at 4 C overnight. Prior to use, capture plates were washed 3 times in TBS containing 0.1% Tween20 (Bio-Rad, 170-6351) (TBST) and blocked in blocking buffer (Thermo Scientific, Starting Block T20, 37543) for 1-2 h at room temperature. After 1 h of cell lysis, 85 μl of cell lysate/well was transferred to the capture plate for detection of pAkt(T308). 15 μl of cell lysate was transferred from same well to the second capture plate for detection of total Akt1. After incubation overnight at 4° C., plates were washed 3 times with 200 μL TBST. Primary antibodies, diluted 1:100 in blocking buffer, were added to the corresponding capture plates for pAkt(T308) (Cell Signaling Technology, 7144) and total Akt1 (Cell Signaling Technology, 7142) detection and incubated at room temperature for 1 h. Plates were washed 3 times with 200 μL of TBST. Goat anti-mouse secondary antibody (Cell Signaling Technology, 7076) conjugated to HRP was diluted 1:1000 in blocking buffer and 100 μl were added to each well and incubated for 30 minutes at room temperature. Plates were then washed 3 times with 200 μL of TBST. 100 μL of SuperSignal ELISA Femto stable peroxidase solution (Thermo Scientific, 37075) was added to each well. After 1 minute incubation, chemiluminescence was read on a Wallac Victor2 1420 multilabel counter. IC50 values were determined based on the ratio of pAkt(T308) to total Akt1 signal for Compound treated wells, normalized to the DMSO-treated control wells.
In another embodiment, the pAKT ELISA Assay was performed by seeding cells onto 96-well plates (Corning, 3904) in their respective growth media at the densities listed in Table 5. Cells were incubated at 37° C., 5% CO2 for 48 h (except MDA-MB-453 cells which were cultured in the absence of CO2). Compounds were serially diluted in DMSO and subsequently diluted in serum-free DMEM. Test compounds were added to cells in serum-free DMEM at a final concentration of 0.3% DMSO and incubated for 3 h. Cells were lysed with 130 μL of ice-cold RIPA lysis buffer (50 mM Tris-HCl, pH 7.5; 0.5% sodium deoxycholic acid; 1% Triton X-100; 0.1% SDS; 150 mM NaCl) with protease and phosphatase inhibitors (1 mM EDTA, 1 mM NaF, 20 mM β-glycerophosphate, 1 mM Na-orthovanadate, Complete-Mini EDTA-free, Roche, 11836170001, and Phosphatase Inhibitor Cocktail I, Sigma, P2850), directly in 96-well plates. Cells were lysed on ice for 60-120 min at 4° C. The supernatants were added directly to capture ELISA plates previously pre-coated with rabbit anti-AKT capture antibody. ELISA assays for pAKT(T308) and total AKT were performed with the pAKT(T308) ELISA kit (Cell Signaling Technology, 7144) and AKT1 ELISA kit (Cell Signaling Technology, 7142). For the pAKT(T308) ELISA, 85 μL of cell lysate was added to each well. […]

PTEN-negative tumors [2] = settings: specific inhibition of PI3Kβ; cited from earlier work
PTEN-negative tumors [3] = settings: specific inhibition of PI3Kβ; cited from earlier work; remark: listed apart in the source

In the case of `Cc1cc(C(C)Nc2ccccc2)c2nc(N3CCOCC3)cc(=O)n2c1` (stereo not drawn) [TGX-221, 7-methyl-2-(4-morpholinyl)-9-[1-(phenylamino)ethyl]-4H-pyrido[1,2-a]pyrimidin-4-one], the pIC50 [1] is given as 5.75, the “basal AKT phosphorylation” value (PTEN-negative tumors [2]) is given as “blocks” and the cell growth (PTEN-negative tumors [3]) is given as “blocks”.
